From US11981658B2, “Substituted aminopyridine compounds as EGFR inhibitors” (YUHAN CORPORATION, priority 2021, dated 2024)
Read-outs that look alike come from different tables or passages of the source.

Columns and labels:
EGFR Del19/T790M/C797S = EGFR Del19/T790M/C797S (Homo sapiens, UniProt P00533, C797S/DEL746-750/T790M); assay: Biochemical EGFR kinase inhibition assay (Lance Ultra TR-FRET), triple mutant del19/T790M/C797S
How it was run: (§1)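 Kinase activity is measured by TR-FRET phosphopeptide detection. Compounds span 0.003 μM to 10 μM; the 1 h reaction at room temperature is quenched with EDTA, then labelled antibody (2 nM) is incubated 60 min before reading.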

EGFR L858R/T790M/C797S = EGFR L858R/T790M/C797S (Homo sapiens, UniProt P00533, C797S/L858R/T790M); assay: Biochemical EGFR kinase inhibition assay (Lance Ultra TR-FRET), triple mutant L858R/T790M/C797S
How it was run: as §1

EGFR Del19/C797S = EGFR Del19/C797S (Homo sapiens, UniProt P00533, C797S/DEL746-750); assay: Biochemical EGFR kinase inhibition assay (Lance Ultra TR-FRET), double mutant del19/C797S
How it was run: as §1

EGFR L858R/C797S = EGFR L858R/C797S (Homo sapiens, UniProt P00533, C797S/L858R); assay: Biochemical EGFR kinase inhibition assay (Lance Ultra TR-FRET), double mutant L858R/C797S
How it was run: as §1

EGFR wildtype (WT) = EGFR wildtype (WT) (Homo sapiens, UniProt P00533); assay: Biochemical EGFR kinase inhibition assay (Lance Ultra TR-FRET), wildtype
How it was run: as §1

[1] = ATP at Km, read-out: IC50 Del19/T790M/C797S (nM), Km ATP
[2] = IC50 Del19/T790M/C797S (nM), 100 μM ATP
[3] = IC50 L858R/T790M/C797S (nM), 100 μM ATP
[4] = ATP at Km, read-out: IC50 Del19/C797S (nM), Km ATP
[5] = IC50 Del19/C797S (nM), 100 μM ATP
[6] = ATP at Km, read-out: IC50 L858R/C797S (nM), Km ATP
[7] = IC50 L858R/C797S (nM), 100 μM ATP
[8] = ATP at Km, read-out: IC50 WT (nM), Km ATP
[9] = Km ATP, read-out: IC50 Del19/T790M/C797S (nM) Km ATP
[10] = Km ATP, read-out: IC50 L858R/T790M/C797S (nM) Km ATP
[11] = Km ATP, read-out: IC50 Del19/C797S (nM) Km ATP
[12] = Km ATP, read-out: IC50 L858R/C797S (nM) Km ATP
[13] = Km ATP, read-out: IC50 WT (nM) Km ATP
[14] = Km ATP, read-out: IC50 Del19/T790M/C797S (nM), Km ATP
[15] = Km ATP, read-out: IC50 L858R/T790M/C797S (nM), Km ATP
[16] = Km ATP, read-out: IC50 Del19/C797S (nM), Km ATP
[17] = Km ATP, read-out: IC50 L858R/C797S (nM), Km ATP
[18] = Km ATP, read-out: IC50 WT (nM), Km ATP

EGFR Del19/T790M/C797S, sequence (P00533 with tags, fused parts or gaps DEL746-750/T790M/C797S): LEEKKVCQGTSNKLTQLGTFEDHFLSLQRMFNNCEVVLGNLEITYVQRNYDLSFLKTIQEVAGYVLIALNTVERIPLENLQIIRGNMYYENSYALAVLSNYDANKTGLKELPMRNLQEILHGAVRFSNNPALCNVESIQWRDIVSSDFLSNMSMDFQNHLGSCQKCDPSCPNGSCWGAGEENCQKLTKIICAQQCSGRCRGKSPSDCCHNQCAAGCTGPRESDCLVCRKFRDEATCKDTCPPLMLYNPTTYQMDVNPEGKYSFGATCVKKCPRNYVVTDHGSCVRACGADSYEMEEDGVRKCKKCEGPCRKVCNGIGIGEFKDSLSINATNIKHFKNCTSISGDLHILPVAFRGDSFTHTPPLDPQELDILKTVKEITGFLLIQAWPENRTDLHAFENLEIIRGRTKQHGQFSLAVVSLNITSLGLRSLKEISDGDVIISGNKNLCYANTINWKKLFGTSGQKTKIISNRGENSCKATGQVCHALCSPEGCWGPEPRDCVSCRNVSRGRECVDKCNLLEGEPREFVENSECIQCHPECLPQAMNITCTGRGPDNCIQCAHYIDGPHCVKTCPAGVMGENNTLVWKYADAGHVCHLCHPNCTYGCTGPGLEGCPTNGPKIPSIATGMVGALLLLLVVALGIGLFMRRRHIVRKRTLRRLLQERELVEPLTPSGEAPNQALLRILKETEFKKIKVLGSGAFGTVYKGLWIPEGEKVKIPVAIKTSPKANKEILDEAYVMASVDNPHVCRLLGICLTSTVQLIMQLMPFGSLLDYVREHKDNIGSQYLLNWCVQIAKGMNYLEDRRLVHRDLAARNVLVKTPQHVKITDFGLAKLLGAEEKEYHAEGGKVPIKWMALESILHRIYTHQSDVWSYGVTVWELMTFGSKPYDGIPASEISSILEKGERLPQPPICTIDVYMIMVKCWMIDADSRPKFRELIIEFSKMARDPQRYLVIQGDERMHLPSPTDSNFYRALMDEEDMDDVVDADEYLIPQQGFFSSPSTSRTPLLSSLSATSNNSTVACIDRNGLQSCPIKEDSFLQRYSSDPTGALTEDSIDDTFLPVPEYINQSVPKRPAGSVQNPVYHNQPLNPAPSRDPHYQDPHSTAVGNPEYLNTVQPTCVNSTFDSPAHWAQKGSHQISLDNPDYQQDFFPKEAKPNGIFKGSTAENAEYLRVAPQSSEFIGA
EGFR L858R/C797S, sequence (P00533 25-1210 C797S/L858R): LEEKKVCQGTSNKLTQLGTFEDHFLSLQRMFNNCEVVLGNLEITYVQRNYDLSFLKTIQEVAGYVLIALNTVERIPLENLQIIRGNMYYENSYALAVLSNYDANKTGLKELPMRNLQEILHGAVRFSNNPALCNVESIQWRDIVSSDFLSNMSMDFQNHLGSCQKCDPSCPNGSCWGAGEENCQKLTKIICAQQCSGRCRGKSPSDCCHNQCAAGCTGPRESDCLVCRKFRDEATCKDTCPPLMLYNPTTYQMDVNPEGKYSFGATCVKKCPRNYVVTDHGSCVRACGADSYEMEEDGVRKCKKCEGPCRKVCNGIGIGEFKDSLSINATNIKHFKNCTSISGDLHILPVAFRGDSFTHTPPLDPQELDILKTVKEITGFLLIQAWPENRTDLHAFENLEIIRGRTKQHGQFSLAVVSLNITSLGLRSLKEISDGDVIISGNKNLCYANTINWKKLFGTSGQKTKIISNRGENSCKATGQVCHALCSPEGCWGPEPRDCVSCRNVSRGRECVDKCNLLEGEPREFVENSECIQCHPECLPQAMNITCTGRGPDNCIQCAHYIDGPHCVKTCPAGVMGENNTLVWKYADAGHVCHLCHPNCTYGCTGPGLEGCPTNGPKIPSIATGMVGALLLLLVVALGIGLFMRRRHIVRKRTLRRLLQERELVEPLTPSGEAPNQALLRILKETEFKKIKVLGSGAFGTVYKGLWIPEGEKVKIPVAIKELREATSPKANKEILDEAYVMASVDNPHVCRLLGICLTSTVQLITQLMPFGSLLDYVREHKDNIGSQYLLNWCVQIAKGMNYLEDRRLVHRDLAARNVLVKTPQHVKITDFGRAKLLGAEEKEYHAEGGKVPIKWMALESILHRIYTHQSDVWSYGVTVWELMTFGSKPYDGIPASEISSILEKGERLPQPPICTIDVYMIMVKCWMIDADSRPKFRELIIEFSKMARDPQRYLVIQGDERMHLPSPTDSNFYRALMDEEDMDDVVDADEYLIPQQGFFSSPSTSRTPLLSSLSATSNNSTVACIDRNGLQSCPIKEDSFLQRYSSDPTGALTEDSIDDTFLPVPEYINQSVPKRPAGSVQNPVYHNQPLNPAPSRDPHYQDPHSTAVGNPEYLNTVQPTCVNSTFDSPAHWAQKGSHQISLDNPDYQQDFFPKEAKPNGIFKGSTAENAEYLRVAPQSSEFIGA
EGFR L858R/T790M/C797S, sequence (P00533 25-1210 T790M/C797S/L858R): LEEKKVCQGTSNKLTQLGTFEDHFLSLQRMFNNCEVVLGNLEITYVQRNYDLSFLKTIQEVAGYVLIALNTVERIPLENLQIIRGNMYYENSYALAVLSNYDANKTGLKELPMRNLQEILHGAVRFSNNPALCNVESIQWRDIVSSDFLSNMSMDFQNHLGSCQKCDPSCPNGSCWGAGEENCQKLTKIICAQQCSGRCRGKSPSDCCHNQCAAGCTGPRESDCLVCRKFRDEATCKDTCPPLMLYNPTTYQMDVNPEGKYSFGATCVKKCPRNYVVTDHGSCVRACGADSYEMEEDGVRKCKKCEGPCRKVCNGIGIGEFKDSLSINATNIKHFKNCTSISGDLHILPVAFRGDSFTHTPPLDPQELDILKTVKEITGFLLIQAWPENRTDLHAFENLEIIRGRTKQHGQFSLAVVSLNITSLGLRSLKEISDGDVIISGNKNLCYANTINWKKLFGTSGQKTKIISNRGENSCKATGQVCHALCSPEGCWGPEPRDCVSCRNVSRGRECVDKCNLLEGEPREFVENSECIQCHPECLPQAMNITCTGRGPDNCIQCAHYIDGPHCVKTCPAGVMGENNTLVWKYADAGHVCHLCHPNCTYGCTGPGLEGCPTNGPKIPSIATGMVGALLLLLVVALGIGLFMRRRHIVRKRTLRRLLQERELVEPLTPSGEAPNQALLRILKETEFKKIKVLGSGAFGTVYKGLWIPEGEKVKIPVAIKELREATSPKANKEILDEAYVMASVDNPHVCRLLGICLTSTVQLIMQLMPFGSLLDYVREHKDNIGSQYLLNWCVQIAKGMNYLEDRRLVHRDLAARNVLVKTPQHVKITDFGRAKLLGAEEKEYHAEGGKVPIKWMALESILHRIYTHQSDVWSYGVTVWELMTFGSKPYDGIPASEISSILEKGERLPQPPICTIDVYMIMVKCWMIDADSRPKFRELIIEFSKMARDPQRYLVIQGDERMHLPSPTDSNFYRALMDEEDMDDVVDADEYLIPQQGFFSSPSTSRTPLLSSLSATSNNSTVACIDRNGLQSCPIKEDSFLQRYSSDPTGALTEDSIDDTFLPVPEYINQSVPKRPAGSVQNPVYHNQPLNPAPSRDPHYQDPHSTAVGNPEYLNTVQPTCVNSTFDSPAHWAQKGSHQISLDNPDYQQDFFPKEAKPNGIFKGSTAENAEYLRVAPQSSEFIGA
EGFR wildtype (WT), sequence (P00533 25-1210): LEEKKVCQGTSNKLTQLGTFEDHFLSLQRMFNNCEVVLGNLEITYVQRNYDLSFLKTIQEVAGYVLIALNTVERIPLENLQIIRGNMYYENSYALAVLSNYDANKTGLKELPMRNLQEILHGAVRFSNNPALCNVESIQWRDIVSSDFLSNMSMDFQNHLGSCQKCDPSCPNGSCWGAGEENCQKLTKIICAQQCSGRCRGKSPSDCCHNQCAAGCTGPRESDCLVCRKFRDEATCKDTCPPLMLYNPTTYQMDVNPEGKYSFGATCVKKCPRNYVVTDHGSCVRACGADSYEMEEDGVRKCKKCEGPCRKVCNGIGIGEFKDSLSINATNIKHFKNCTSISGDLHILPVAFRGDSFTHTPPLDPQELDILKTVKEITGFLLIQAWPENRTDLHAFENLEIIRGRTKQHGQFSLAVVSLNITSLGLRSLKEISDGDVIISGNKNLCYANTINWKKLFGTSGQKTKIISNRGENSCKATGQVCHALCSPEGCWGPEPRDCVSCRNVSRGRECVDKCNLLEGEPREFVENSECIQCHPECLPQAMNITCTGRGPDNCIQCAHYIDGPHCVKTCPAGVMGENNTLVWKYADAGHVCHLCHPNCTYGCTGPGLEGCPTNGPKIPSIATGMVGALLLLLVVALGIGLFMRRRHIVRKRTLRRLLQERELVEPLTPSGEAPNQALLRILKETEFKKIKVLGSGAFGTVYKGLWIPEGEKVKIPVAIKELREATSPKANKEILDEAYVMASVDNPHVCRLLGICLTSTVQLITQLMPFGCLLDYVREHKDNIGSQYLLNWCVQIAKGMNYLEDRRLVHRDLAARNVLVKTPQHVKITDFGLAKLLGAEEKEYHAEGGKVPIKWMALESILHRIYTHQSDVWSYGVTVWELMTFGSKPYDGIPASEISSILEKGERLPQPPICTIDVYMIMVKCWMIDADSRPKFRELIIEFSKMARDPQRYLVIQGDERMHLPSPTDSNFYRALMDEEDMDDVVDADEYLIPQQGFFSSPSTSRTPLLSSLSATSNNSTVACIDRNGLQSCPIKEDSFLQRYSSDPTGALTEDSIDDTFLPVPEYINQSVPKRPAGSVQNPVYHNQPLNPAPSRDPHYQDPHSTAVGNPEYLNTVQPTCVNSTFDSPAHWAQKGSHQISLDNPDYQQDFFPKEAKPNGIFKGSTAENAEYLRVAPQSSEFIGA

| IC50 (EGFR Del19/T790M/C797S; [1]) [nM] | IC50 (EGFR Del19/T790M/C797S; [2]) [nM] | IC50 (EGFR L858R/T790M/C797S; [3]) [nM] | IC50 (EGFR Del19/C797S; [4]) [nM] | IC50 (EGFR Del19/C797S; [5]) [nM] | IC50 (EGFR L858R/C797S; [6]) [nM] | IC50 (EGFR L858R/C797S; [7]) [nM] | IC50 (EGFR wildtype (WT); [8]) [nM] | IC50 (EGFR wildtype (WT); IC50 WT (nM), 100 μM ATP) [nM] | IC50 (EGFR Del19/T790M/C797S; [9]) [nM] | IC50 (EGFR L858R/T790M/C797S; [10]) [nM] | IC50 (EGFR Del19/C797S; [11]) [nM] | IC50 (EGFR L858R/C797S; [12]) [nM] | IC50 (EGFR wildtype (WT); [13]) [nM] | IC50 (EGFR Del19/T790M/C797S; [14]) [nM] | IC50 (EGFR L858R/T790M/C797S; [15]) [nM] | IC50 (EGFR Del19/C797S; [16]) [nM] | IC50 (EGFR L858R/C797S; [17]) [nM] | IC50 (EGFR wildtype (WT); [18]) [nM] | IC50 (EGFR L858R/T790M/C797S; ATP at Km, read-out: IC50 L858R/T790M/C797S (nM), Km ATP) [nM] | SMILES |
| --- | --- | --- | --- | --- | --- | --- | --- | --- | --- | --- | --- | --- | --- | --- | --- | --- | --- | --- | --- | --- |
|  |  |  |  |  |  |  |  |  | 1.6 | 7.1 | 77.7 | 92.5 | 907 |  |  |  |  |  |  | CC(C)Nc1cc(Nc2ccnc(-c3cnn(S(=O)(=O)C4CC4)c3)n2)ncc1C#Cc1cnn(CC(F)F)c1 [Example 23, N^2-(2-(1-(Cyclopropylsulfonyl)-1H-pyrazol-4-yl)pyrimidin-4-yl)-5-((1-(2,2-difluoroethyl)-1H-pyrazol-4-yl)ethynyl)-N^4-isopropylpyridine-2,4-diamine] |
|  | 1.4 | 4 |  | 109 |  | 274 |  | > 10000 |  |  |  |  |  |  |  |  |  |  |  | Cn1cnc(C#Cc2cnc(Nc3ccnc(-c4cnn(S(=O)(=O)C5CC5)c4)n3)cc2N2CCC(O)CC2)n1 [Example 214, 1-(2-((2-(1-(Cyclopropylsulfonyl)-1H-pyrazol-4-yl)pyrimidin-4-yl)amino)-5-((1-methyl-1H-1,2,4-triazol-3-yl)ethynyl)pyridin-4-yl)piperidin-4-ol] |
|  | 3.2 | 6.5 |  | 64.2 |  | 2200 |  | > 10000 | 2.3 | 1.5 | 48.7 | 100 | 2520 |  |  |  |  |  |  | C[C@]1(O)CC[C@@H](Nc2cc(Nc3ccnc(-c4cnn(S(=O)(=O)C5CC5)c4)n3)ncc2C#Cc2cnn(C(F)(F)F)c2)CC1 [Example 105, (1s,4s)-4-((2-((2-(1-(Cyclopropylsulfonyl)-1H-pyrazol-4-yl)pyrimidin-4-yl)amino)-5-((1-(trifluoromethyl)-1H-pyrazol-4-yl)ethynyl)pyridin-4-yl)amino)-1-methylcyclohexan-1-ol] |
|  | 0.3 | 0.5 |  | 5.2 |  | 125 |  | 8890 |  |  |  |  |  | 0.4 | 0.2 | 2.3 | 2.4 | 21.2 |  | O=S(=O)(C1CC1)n1cc(-c2nccc(Nc3cc(NC4CCC(CO)CC4)c(C#CC4(F)CCOC4)cn3)n2)cn1 (stereo not drawn) [Example 434, ((1s,4s)-4-((2-((2-(1-(Cyclopropylsulfonyl)-1H-pyrazol-4-yl)pyrimidin-4-yl)amino)-5-((3-fluorotetrahydrofuran-3-yl)ethynyl)pyridin-4-yl)amino)cyclohexyl)methanol] |
|  | 1.2 | 1.6 |  | 3.7 |  | 77.8 |  | 7620 |  |  |  |  |  | 1.6 | 0.8 | 4.9 | 12.8 | 44.2 |  | CC1(CO)CCN(c2cc(Nc3ccnc(-c4cnn(S(=O)(=O)C5CC5)c4)n3)ncc2C#CC2(O)CCC2)CC1 [Example 351, 1-((6-((2-(1-(Cyclopropylsulfonyl)-1H-pyrazol-4-yl)pyrimidin-4-yl)amino)-4-(4-(hydroxymethyl)-4-methylpiperidin-1-yl)pyridin-3-yl)ethynyl)cyclobutan-1-ol] |

Second part, the compound before the results:

| SMILES | IC50 (EGFR Del19/T790M/C797S; [1]) [nM] | IC50 (EGFR Del19/T790M/C797S; [2]) [nM] | IC50 (EGFR L858R/T790M/C797S; [3]) [nM] | IC50 (EGFR Del19/C797S; [4]) [nM] | IC50 (EGFR Del19/C797S; [5]) [nM] | IC50 (EGFR L858R/C797S; [6]) [nM] | IC50 (EGFR L858R/C797S; [7]) [nM] | IC50 (EGFR wildtype (WT); [8]) [nM] | IC50 (EGFR wildtype (WT); IC50 WT (nM), 100 μM ATP) [nM] | IC50 (EGFR Del19/T790M/C797S; [9]) [nM] | IC50 (EGFR L858R/T790M/C797S; [10]) [nM] | IC50 (EGFR Del19/C797S; [11]) [nM] | IC50 (EGFR L858R/C797S; [12]) [nM] | IC50 (EGFR wildtype (WT); [13]) [nM] | IC50 (EGFR Del19/T790M/C797S; [14]) [nM] | IC50 (EGFR L858R/T790M/C797S; [15]) [nM] | IC50 (EGFR Del19/C797S; [16]) [nM] | IC50 (EGFR L858R/C797S; [17]) [nM] | IC50 (EGFR wildtype (WT); [18]) [nM] | IC50 (EGFR L858R/T790M/C797S; ATP at Km, read-out: IC50 L858R/T790M/C797S (nM), Km ATP) [nM] |
| --- | --- | --- | --- | --- | --- | --- | --- | --- | --- | --- | --- | --- | --- | --- | --- | --- | --- | --- | --- | --- |
| O=S(=O)(C1CC1)n1cc(-c2nccc(Nc3cc(N4CCC5(CCCO5)CC4)c(C#Cc4cccnc4)cn3)n2)cn1 [Example 282, 2-(1-(Cyclopropylsulfonyl)-1H-pyrazol-4-yl)-N-(5-(pyridin-3-ylethynyl)-4-(1-oxa-8-azaspiro[4.5]decan-8-yl)pyridin-2-yl)pyrimidin-4-amine] | 5.5 | 23.8 | 7.1 | 8.3 | 28.6 | 4.2 | 39.2 | 50.7 | > 10000 |  |  |  |  |  |  |  |  |  |  |  |
| CC1(CO)CCN(c2cc(Nc3ccnc(-c4cnn(S(=O)(=O)C5CC5)c4)n3)ncc2C#CC2CCS(=O)(=O)C2)CC1 (stereo not drawn) [Example 437, 3-((6-((2-(1-(Cyclopropylsulfonyl)-1H-pyrazol-4-yl)pyrimidin-4-yl)amino)-4-(4-(hydroxymethyl)-4-methylpiperidin-1-yl)pyridin-3-yl)ethynyl)tetrahydrothiophene 1,1-dioxide] |  | 0.1 | 0.1 |  | 1.3 |  | 39.3 |  | > 10000 |  |  |  |  |  | 0.1 | 0.1 | 0.6 | 0.8 | 3.7 |  |
| CNC1CCN(c2cc(Nc3ccnc(-c4cnn(S(=O)(=O)C5CC5)c4)n3)ncc2C#Cc2ccn(C)n2)CC1 [Example 140, 2-(1-(Cyclopropylsulfonyl)-1H-pyrazol-4-yl)-N-(5-((1-methyl-1H-pyrazol-3-yl)ethynyl)-4-(4-(methylamino)piperidin-1-yl)pyridin-2-yl)pyrimidin-4-amine] |  | 1.8 | 6.4 |  | 176 |  | 887 |  | > 10000 | 1.3 | 1.3 | 114 | 23.2 | 622 |  |  |  |  |  |  |
| CS(=O)(=O)N1CCC(C#Cc2cnc(Nc3ccnc(-c4cnn(S(=O)(=O)C5CC5)c4)n3)cc2NC[C@H]2CC[C@H](CO)CC2)CC1 [Example 388, ((1r,4r)-4-(((2-((2-(1-(Cyclopropylsulfonyl)-1H-pyrazol-4-yl)pyrimidin-4-yl)amino)-5-((1-(methylsulfonyl)piperidin-4-yl)ethynyl)pyridin-4-yl)amino)methyl)cyclohexyl)methanol] |  | 6.6 | 19.3 |  | 127 |  | 624 |  | > 10000 |  |  |  |  |  | 2.7 | 2 | 33.3 | 38.6 | 312 |  |
| CC1(CO)CCN(c2cc(Nc3ccnc(-c4cnn(S(=O)(=O)C5CC5)c4)n3)ncc2C#CC2CC(C(C)(C)O)C2)CC1 (stereo not drawn) [Example 266, 2-(3-((6-((2-(1-(Cyclopropylsulfonyl)-1H-pyrazol-4-yl)pyrimidin-4-yl)amino)-4-(4-(hydroxymethyl)-4-methylpiperidin-1-yl)pyridin-3-yl)ethynyl)cyclobutyl)propan-2-ol] | 1 | 0.8 | 0.4 | 1.1 | 2.1 | 0.9 | 5.4 | 7.2 | 1230 |  |  |  |  |  |  |  |  |  |  | 0.4 |
| CC(C)(O)[C@H]1CC[C@@H](Nc2cc(Nc3ccnc(-c4cnn(S(=O)(=O)C5CC5)c4)n3)ncc2C#Cc2cnn(CC(F)(F)F)c2)CC1 [Example 346, 2-((1s,4s)-4-((2-((2-(1-(Cyclopropylsulfonyl)-1H-pyrazol-4-yl)pyrimidin-4-yl)amino)-5-((1-(2,2,2-trifluoroethyl)-1H-pyrazol-4-yl)ethynyl)pyridin-4-yl)amino)cyclohexyl)propan-2-ol] |  | 17.4 | 5.8 |  | 45.3 |  | 249 |  | > 10000 |  |  |  |  |  |  |  |  |  |  |  |
| O=S(=O)(C1CC1)n1cc(-c2nccc(Nc3cc(N4CCC(F)(CO)CC4)c(C#Cc4cnn(CC(F)(F)F)c4)cn3)n2)cn1 [Example 342, (1-(2-((2-(1-(Cyclopropylsulfonyl)-1H-pyrazol-4-yl)pyrimidin-4-yl)amino)-5-((1-(2,2,2-trifluoroethyl)-1H-pyrazol-4-yl)ethynyl)pyridin-4-yl)-4-fluoropiperidin-4-yl)methanol] |  | 0.9 | 0.8 |  | 3.6 |  | 11.8 |  | > 10000 |  |  |  |  |  | 0.8 | 0.2 | 2.3 | 4.5 | 11 |  |
| CC(O)CC#Cc1cnc(Nc2ccnc(-c3cnn(S(=O)(=O)C4CC4)c3)n2)cc1N1CCC(C)(CO)CC1 (stereo not drawn) [Example 287, 5-(6-((2-(1-(Cyclopropylsulfonyl)-1H-pyrazol-4-yl)pyrimidin-4-yl)amino)-4-(4-(hydroxymethyl)-4-methylpiperidin-1-yl)pyridin-3-yl)pent-4-yn-2-ol] |  | 0.1 | 0.3 |  | 1.6 |  | 8.9 |  | 3190 |  |  |  |  |  |  |  |  |  |  |  |
| CC1(C)CN(c2cc(Nc3ccnc(-c4cnn(S(=O)(=O)C5CC5)c4)n3)ncc2C#Cc2ccsc2)CCC1O (stereo not drawn) [Example 229, 1-(2-((2-(1-(Cyclopropylsulfonyl)-1H-pyrazol-4-yl)pyrimidin-4-yl)amino)-5-(thiophen-3-ylethynyl)pyridin-4-yl)-3,3-dimethylpiperidin-4-ol] |  | 8.9 | 26.9 |  | 175 |  | 368 |  | > 10000 |  |  |  |  |  |  |  |  |  |  |  |
